Like-named read-outs stand apart in the source and are kept apart here.
How the values were obtained:
KDM5D = target: T1, KDM5D (Homo sapiens, UniProt Q9BY66); experiment: Biochemical KDM inhibition assay (LANCE), KDM5D; conditions: read-out: Biochemical IC50 KDM 5D
T1 construct: host or cells: Sf9 cells
Protocol: (§1) Representative compounds were characterized for their inhibition of KDM5 using biotinylated histone substrates. Inhibition was measured in vitro (CEREP Poitier, Le Bois l'Evêque, France) following experimental conditions described in Table 2. Briefly, the test compound, reference compound or water (control) was mixed with about 2-20 ng of recombinant, Human enzymes expressed in Sf9 cells in a buffer containing 45 mM Hepes/Tris (pH 7), 5 μM FAS, 100 μM ascorbic acid, 10 μM 2-oxoglutarate, 0.01% Tween 20 and 0.01% BSA. Thereafter, the reaction was initiated by adding the biotin-labeled substrate, and the mixture was incubated for 10-30 min at room temperature. For basal control measurements, the enzyme was omitted from the reaction mixture. Following incubation the reaction was stopped by adding 1 mM EDTA. After 5 min, the anti-methyl histone antibody labeled with europium chelate and the Ulight streptavidine (Perkin Elmer Waltham, Mass.) were added. After 60 min more, the fluorescence transfer was measured at λex=320 nm and λem=620 and λem=665 nm using a microplate reader (Envision, Perkin Elmer) (LANCE). The enzyme activity was determined by dividing the signal measured at λem=665 nm by that measured at 620 nm (ratio).

[1] = Alamar Blue cell viability assay; assay type: cell-based; conditions: human
Protocol: Alamar Blue cell viability reagent (Cat#DAL1100 Life Technologies, Chicago, Ill.) was diluted 1 to 10 in Maintenance Media and added to the cells. Cells were incubated for 4 h at 37° C. and the fluorescence signal, which is proportional to the number of live cells, was read using a fluorimeter with excitation/emission spectra set at 560/590 nm, respectively. Data were converted into percentages of the untreated control and non-linear regression was performed to calculate CC50 values.
PHH were plated in collagen coated tissue culture plates in Plating Media and after 4-hour incubation at 37° C., cells were switched to Maintenance Media. On the next day, the cells were infected with 500 genome equivalents per cell of Genotype-A clinical isolate 21P (ProteoGenex, Culver City, Calif.) in 100 μl Maintenance Media supplemented with 4% PEG 8000 (Cat#V3011 Promega, Madison, Wis.). After an overnight incubation the inoculum was removed and the cells were washed three times with William's Media E and maintained in Maintenance Media. […] Following the transfection, the cells were incubated at 37° C. in a humidified incubator and media was changed every 3-4 days. The assay was terminated on day 14 post infection and cell viability was assessed by Alamar Blue. The collected medium was used for determination of HBsAg and HBeAg levels by MSD ELISA while cells were processed for determination of HBV RNA using qPCR.

KDM5A = KDM5A (Homo sapiens, UniProt P29375); experiment: Biochemical KDM inhibition assay (LANCE), KDM5A; conditions: read-out: Biochemical IC50 KDM 5A
Sequence of KDM5A (P29375 whole entry): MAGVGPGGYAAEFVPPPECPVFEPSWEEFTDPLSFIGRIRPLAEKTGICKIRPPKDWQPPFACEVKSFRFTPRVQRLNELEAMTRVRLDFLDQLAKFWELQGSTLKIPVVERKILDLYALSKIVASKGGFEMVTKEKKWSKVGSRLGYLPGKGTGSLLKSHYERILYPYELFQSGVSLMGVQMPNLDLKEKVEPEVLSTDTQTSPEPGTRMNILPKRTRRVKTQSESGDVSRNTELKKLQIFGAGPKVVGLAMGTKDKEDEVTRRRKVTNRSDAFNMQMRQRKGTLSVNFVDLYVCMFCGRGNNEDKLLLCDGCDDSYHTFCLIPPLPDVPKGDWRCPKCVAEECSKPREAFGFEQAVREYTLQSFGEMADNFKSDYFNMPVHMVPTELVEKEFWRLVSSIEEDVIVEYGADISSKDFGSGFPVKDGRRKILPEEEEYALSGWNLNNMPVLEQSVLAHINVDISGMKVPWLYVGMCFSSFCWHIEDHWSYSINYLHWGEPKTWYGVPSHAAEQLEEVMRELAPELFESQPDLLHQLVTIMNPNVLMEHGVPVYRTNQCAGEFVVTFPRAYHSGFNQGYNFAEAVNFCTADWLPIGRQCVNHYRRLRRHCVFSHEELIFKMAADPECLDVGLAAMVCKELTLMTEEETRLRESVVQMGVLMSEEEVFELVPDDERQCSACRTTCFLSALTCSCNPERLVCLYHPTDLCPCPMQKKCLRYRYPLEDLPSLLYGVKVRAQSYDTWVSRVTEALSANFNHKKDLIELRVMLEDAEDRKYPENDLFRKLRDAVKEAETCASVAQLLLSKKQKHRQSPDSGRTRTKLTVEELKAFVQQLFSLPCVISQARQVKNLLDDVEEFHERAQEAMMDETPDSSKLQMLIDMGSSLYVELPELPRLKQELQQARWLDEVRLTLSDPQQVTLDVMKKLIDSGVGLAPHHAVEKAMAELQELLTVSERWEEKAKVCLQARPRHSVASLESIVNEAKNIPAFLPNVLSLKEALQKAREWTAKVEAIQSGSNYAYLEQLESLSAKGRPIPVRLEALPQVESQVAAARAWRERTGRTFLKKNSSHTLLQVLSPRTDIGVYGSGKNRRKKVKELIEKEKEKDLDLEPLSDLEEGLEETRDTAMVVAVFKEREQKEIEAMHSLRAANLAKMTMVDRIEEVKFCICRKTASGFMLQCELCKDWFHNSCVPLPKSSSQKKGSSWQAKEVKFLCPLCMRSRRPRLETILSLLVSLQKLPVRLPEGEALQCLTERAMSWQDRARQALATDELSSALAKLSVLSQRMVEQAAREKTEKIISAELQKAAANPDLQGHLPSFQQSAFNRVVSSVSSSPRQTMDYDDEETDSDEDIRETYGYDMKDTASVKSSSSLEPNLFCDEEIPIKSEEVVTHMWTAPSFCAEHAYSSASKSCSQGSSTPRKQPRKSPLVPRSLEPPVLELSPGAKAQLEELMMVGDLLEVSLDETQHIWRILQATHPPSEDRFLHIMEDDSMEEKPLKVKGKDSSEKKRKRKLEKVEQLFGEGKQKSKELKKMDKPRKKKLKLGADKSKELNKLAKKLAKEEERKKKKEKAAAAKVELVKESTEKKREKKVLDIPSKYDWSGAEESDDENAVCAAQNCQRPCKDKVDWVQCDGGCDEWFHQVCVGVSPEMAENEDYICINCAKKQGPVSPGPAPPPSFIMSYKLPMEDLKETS
Protocol: as §1

KDM4E = target: T2, KDM4E (Homo sapiens, UniProt B2RXH2); experiment: Biochemical KDM inhibition assay (LANCE), KDM4E; conditions: read-out: Biochemical IC50 KDM 4E
T2 construct: host or cells: Sf9 cells
T2 sequence (B2RXH2 1-506): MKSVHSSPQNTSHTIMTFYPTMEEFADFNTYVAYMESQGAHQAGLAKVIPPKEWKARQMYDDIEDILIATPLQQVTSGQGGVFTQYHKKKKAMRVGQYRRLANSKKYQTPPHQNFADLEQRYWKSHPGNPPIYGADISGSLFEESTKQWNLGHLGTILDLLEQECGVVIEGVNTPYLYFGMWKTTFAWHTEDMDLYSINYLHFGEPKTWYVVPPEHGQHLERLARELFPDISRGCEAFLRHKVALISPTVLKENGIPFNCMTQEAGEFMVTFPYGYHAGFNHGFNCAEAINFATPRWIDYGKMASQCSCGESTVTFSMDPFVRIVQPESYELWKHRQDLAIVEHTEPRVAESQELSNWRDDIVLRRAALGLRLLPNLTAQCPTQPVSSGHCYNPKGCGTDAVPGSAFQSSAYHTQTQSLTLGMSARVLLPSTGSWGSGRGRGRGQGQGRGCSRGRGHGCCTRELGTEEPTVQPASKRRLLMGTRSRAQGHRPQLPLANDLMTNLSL

HBV [2] = experiment: PHH screening protocol: HBsAg and HBeAg levels by MSD ELISA; assay type: cell-based, Hepatitis B Virus; conditions: Hepatitis B virus
Protocol: HBV antiviral activity was assessed in primary human hepatocytes (PHH) in a 96-well format. PHH were (Life Technologies, Chicago, 11) plated on collagen coated tissue culture plates using Plating Media containing William's Medium E supplemented with 1% Penicillin/Streptomycin, 4 μg/mL human recombinant insulin, 2 mM glutamax, 15 mM Hepes, 1 μM dexamethasone and 5% fetal bovine serum (Life Technologies, Cat#A12176-01 Life Technologies, Chicago, Ill.). After a 4-hour incubation at 37° C., cells were switched to Maintenance Media (Cat#CM4000-A15564 Life Technologies, Chicago, Ill.) containing William's Medium E supplemented with 0.5% Penicillin/Streptomycin, 6.25 μg/mL human recombinant insulin, 6.25 μg/mL human transferrin, 6.25 ng/mL selenous acid, 1.25 mg/mL bovine serum albumin, 5.35 μg/mL linoleic acid, 2 mM glutamax, 15 mM Hepes, 0.1 μM dexamethasone, 2% fetal bovine serum, and 2% DMSO (Cat#D2650 Sigma, St. Louis, Mo.). On the next day, cells were infected with approximately 500 genome equivalent of selected HBV clinical isolates (21P (GTA), 32P (GTA), 91P (GTA), AD38 (GTD), 65P (GTD) or 30P (GTE); ProteoGenex, Culver City, Calif.) per cell in Maintenance Media supplemented with 4% PEG 8000 (Cat#V3011 Promega, Madison, Wis.). After 24 hour incubation cells were washed three times with William's Medium E and fed with fresh Maintenance Media. Small molecule inhibitors targeting KDMs were serially diluted in Maintenance Media and added to cells at 3 days post infection (p.i.). Media with compounds was replenished every 2-3 days. Media collected on various days was used for determination of HBsAg and HBeAg levels by MSD ELISA, and HBV RNA by qPCR. All data were converted into percentages of the untreated control and non-linear regression was performed to calculate EC50 or CC50 values.

KDM5B = target: T3, KDM5B (Homo sapiens, UniProt Q9UGL1); experiment: Biochemical KDM inhibition assay (LANCE), KDM5B; conditions: read-out: Biochemical IC50 KDM 5B
T3 construct: host or cells: Sf9 cells
T3 sequence (Q9UGL1 whole entry): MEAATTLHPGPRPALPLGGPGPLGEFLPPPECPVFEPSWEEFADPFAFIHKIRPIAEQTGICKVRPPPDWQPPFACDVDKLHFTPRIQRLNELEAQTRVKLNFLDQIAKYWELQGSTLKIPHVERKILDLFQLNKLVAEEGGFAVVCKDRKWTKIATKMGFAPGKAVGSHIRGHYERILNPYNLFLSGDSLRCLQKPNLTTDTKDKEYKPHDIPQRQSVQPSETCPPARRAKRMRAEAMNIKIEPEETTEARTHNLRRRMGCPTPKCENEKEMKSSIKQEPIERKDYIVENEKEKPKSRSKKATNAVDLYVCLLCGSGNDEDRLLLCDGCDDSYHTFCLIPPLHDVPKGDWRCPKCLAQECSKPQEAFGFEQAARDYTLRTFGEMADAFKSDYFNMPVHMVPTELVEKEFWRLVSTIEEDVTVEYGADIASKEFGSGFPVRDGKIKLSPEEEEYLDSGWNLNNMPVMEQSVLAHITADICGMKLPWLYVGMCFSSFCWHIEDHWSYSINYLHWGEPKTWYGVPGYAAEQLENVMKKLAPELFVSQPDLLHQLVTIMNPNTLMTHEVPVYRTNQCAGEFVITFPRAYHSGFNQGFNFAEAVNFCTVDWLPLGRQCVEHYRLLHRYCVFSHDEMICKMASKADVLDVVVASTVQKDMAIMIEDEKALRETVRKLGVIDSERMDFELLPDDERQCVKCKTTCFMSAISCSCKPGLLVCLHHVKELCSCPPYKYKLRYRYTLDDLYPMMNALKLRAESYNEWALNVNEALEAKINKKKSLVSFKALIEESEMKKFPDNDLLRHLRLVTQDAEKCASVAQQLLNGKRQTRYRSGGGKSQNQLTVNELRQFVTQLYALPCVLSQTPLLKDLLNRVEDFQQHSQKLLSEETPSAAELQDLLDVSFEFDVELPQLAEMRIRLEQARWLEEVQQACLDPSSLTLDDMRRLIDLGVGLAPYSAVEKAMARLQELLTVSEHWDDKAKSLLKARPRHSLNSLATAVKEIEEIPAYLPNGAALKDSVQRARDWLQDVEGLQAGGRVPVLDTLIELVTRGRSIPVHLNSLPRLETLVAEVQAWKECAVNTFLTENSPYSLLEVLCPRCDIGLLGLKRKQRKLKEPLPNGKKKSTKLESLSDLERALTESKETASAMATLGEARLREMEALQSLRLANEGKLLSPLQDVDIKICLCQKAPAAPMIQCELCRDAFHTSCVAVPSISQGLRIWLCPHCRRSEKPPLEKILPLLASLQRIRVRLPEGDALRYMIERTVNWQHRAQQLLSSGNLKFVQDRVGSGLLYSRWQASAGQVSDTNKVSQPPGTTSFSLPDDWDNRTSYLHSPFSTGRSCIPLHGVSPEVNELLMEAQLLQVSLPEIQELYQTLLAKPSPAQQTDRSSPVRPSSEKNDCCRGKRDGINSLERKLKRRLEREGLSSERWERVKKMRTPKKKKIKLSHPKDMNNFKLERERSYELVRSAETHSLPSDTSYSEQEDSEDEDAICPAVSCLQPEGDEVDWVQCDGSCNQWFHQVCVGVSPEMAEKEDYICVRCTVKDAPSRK
Protocol: as §1

H3K4me3 mark = experiment: Western blot detection of H3K4me3 in HBV-infected PHHs; assay type: cell-based, human; conditions: for IC50: Homo sapiens
Protocol: One million primary human hepatocytes (PHH) cells from three different donors were plated in 6 well collagen coated tissue culture plates in 2.5 ml Plating Media containing William's Medium E supplemented with 1% Penicillin/Streptomycin, 4 μg/mL human recombinant insulin, 2 mM glutamax, 15 mM Hepes, 1 μM dexamethasone and 5% fetal bovine serum (Life Technologies, Cat#A12176-01 Life Technologies, Chicago, Ill.) and incubated for 4-hours at 37° C. Following this incubation the media was changed to Maintenance Media (Cat#CM4000-A15564 Life Technologies, Chicago, Ill.) containing William's Medium E supplemented with 0.5% Penicillin/Streptomycin, 6.25 μg/mL human recombinant insulin, 6.25 μg/mL human transferrin, 6.25 ng/mL selenous acid, 1.25 mg/mL bovine serum albumin, 5.35 μg/mL linoleic acid, 2 mM glutamax, 15 mM Hepes, 0.1 μM dexamethasone, 2% fetal bovine serum, and 2% DMSO (Cat#D2650 Sigma, St. Louis, Mo.). The next day, cells were infected with approximately 500 genome equivalents of HBV clinical isolates 21P (GTA) or AD38 (GTD) per cell in Maintenance Media supplemented with 4% PEG 8000. Small molecule inhibitors targeting KDMs were serially diluted in Maintenance Media and added to cells at 3 days post infection (p.i.). Media with compounds was replenished every 2-3 days. Cells were harvested on day 14 p.i. by scraping the monolayer into ice-cold PBS supplemented with 5 mM Sodium Butyrate and concentrated by centrifugation at 1000×g for 5 minutes at 4° C. The cell pellets were washed twice by re-suspension in PBS and concentrated by centrifugation. The cells were lysed by suspension in Triton Extraction Buffer (TEB: PBS containing 0.5% Triton X 100 (v/v), 2 mM phenylmethylsulfonyl fluoride (PMSF), 0.02% (w/v) NaN3) at a cell density of 10^7 cells per ml and incubated on ice for 10 minutes with gentle stirring. Following centrifugation at 500 g for 10 minutes at 4° C., the supernatants were removed and the pellets were washed in 5×10^7 cells per ml TEB buffer and centrifuged as before. The pellets were re-suspended in 0.2N HCl at a cell density of 4×10^7 cells per ml and the histones were acid extracted overnight at 4° C. Samples were centrifuged at 500 g for 10 minutes at 4° C., the supematants were removed and protein content was determined using the Bradford assay. Histones were separated on a 4-20% gradient SDS gel (Mini protean TGX precast gels from BioRad), and blotted to a Hybond C-extra nitrocellulose membrane (Amersham Biosciences, RPN303E). H3K4me3 and total H3 were detected with a mixture of 1° antibodies (Cat#05-745R Millipore and Cat#14269S Cell Signaling) diluted 1:1000 in 5% skimmed milk powder in PBS containing 0.1% Tween. The western blot was washed 3 times in PBS containing 0.1% tween and incubated with 2° antibodies (Donkey anti-Mouse IRDye at 680LT Cat#926-68022 Licor Odyssey; Donkey anti-Rabbit IRDye at 800CW Cat#96-32213; Licor Odyssey) diluted 1:10000 in 5% skimmed milk powder in PBS containing 0.1% tween 20 for 1 h. Detection of infrared fluorescence was performed on Infrared Fluorescence Imaging System LI-COR. Concentration dependence of H3K4me3/H3 signal was used to calculate IC50 value for induction of H3K4 trimethylation.

HBV [3] = experiment: Determination of HBV viral RNA by RT-qPCR in PHH; assay type: cell-based; conditions: Hepatitis B virus, read-out: HBV RNA EC50
Protocol: Following the Alamar Blue measurement, media was removed and total RNA from the cells was isolated using the RNeasy 96 Kit (Cat#74182 Qiagen, Venlo, Netherlands). […] GAPDH mRNA levels were also measured by RT-qPCR to control for differences in cell number, toxicity, and RNA purification efficiency (Cat#4390849 Life Technologies, Chicago Ill.). HBV mRNA Ct values were normalized using their cognate GAPDH mRNA Ct values by the delta-delta-Ct calculation and then expressed as a percentage of the non-targeting scrambled control.

[4] = read-out: HBeAg EC50, HBV-infected PHH
[5] = read-out: HBsAg EC50, HBV-infected PHH
[6] = primary human hepatocytes (PHH), read-out: PHH CC50

T1 sequence (Q9BY66 whole entry): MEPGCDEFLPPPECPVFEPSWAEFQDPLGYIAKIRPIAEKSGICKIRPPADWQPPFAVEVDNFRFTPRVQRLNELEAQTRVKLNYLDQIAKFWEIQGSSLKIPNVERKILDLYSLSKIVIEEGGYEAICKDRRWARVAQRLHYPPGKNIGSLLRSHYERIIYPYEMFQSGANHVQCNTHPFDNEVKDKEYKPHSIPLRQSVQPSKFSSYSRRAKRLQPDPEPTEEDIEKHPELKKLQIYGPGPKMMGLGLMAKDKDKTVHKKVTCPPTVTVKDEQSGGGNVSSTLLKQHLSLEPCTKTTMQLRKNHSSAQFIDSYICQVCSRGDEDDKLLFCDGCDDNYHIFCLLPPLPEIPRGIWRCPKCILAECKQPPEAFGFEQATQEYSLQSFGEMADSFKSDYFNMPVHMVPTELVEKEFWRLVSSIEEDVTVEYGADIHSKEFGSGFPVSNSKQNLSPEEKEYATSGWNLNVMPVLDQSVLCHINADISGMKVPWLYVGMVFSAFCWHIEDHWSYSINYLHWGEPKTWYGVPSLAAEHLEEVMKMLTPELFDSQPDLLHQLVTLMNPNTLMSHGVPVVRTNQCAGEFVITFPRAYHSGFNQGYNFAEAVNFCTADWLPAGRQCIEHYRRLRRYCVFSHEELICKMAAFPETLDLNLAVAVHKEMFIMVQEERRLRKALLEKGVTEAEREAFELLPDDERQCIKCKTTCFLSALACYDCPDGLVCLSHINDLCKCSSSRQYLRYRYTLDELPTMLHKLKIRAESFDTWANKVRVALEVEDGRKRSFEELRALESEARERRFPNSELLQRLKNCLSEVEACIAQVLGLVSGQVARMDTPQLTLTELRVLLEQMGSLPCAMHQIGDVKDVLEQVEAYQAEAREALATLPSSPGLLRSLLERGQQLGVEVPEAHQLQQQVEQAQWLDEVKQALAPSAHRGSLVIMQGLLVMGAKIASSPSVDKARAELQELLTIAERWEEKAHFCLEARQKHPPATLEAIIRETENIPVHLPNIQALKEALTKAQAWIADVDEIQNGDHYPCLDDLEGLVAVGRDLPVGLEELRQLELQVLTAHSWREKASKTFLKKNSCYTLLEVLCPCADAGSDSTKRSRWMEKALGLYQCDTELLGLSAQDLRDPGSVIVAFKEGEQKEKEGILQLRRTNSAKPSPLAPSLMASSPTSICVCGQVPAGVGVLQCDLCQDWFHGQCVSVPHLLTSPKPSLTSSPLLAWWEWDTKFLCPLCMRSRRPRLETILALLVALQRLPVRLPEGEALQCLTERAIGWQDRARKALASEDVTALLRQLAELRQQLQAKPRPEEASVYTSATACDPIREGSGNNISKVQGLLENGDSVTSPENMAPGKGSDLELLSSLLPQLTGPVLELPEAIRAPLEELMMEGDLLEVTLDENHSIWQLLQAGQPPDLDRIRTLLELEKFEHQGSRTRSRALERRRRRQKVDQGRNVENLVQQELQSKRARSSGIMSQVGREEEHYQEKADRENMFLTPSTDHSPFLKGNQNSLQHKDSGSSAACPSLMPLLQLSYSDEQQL

SMILES	CC50 [1] [µM]	EC50 (HBV [2]; [4]) [µM]	EC50 (HBV [2]; [5]) [µM]	CC50 [1, 6] [µM]	further results
O=C(O)c1ccnc(-n2ncc(CCO)c2OCc2ccc(F)cc2)c1 [Example 12]	≥ 50	50	50	–	IC50 (KDM5D): 6.4 µM; IC50 (KDM5A): 1600 nM; IC50 (KDM4E): 9.1 µM; IC50 (KDM5B): 2700 nM
CN(C)CCCNC(=O)c1ccc(-c2cc(O)c3ncccc3c2)cc1 [Example 5, ML-324, reference compound]	–	34.5	38.4	69.4	–
NC1CC1c1cccc(OCC[C@H](NC(=O)c2ccccc2)C(=O)NCc2ccccc2)c1 (some centres unmarked) [Example 10, NCL-1, reference compound]	8.12	19	19.4	–	–
O=C(O)c1ccc(O)c2ncccc12 [Example 2, 8-HQ-5-COOH, reference compound]	–	32	45.8	–	–
CCN(CCN(C)C)C(=O)CNCc1cc(C=O)ccn1 [Example 15]	≥ 50	0.053	0.041	–	IC50 (H3K4me3 mark; read-out: IC50 (concentration causing a 50% increase in the H3K4me3 mark), Virus 21P (GTA), PHH 8130): 50 nM; IC50 (H3K4me3 mark; read-out: IC50 (concentration causing a 50% increase in the H3K4me3 mark), Virus 21P (GTA), PHH 8181): 30 nM; IC50 (H3K4me3 mark; read-out: IC50 (concentration causing a 50% increase in the H3K4me3 mark), Virus AD38 (GTD), PHH 4239): 20 nM; IC50 (H3K4me3 mark; read-out: IC50 (concentration causing a 50% increase in the H3K4me3 mark), Virus AD38 (GTD), PHH 8130): 50 nM; IC50 (H3K4me3 mark; read-out: IC50 (concentration causing a 50% increase in the H3K4me3 mark), Virus AD38 (GTD), PHH 8181): 40 nM; chromatin H3K4Me3 mark (H3K4me3 mark; PHH from three different donors): increase in the chromatin H3K4Me3 mark in a dose-dependent manner
CCOC(=O)CCNc1cc(N2CCc3ccccc3CC2)nc(-c2ccccn2)n1 [Example 3, GSK-J4, reference compound]	–	3.43	28.7	≥ 100	–
Clc1ccc(N/N=C(\c2ccccc2)c2ccccn2)nc1 [Example 4, JIB-04, reference compound]	≥ 100	0.9	0.9	–	EC50 (HBV [3]; HBV-infected PHH): 4.6 µM
CCN(CCN(C)C)C(=O)CNCc1cc(/C=N/CCO)ccn1 [Example 16]	≥ 50	0.648	0.257	–	–
N[C@H]1C[C@@H]1c1ccc(-c2cccc(O)c2)cc1 [Example 6, OG-L002, reference compound]	≥ 100	46.7	38.3	–	EC50 (HBV [3]): 31.6 µM
O=C(O)CCNc1cc(N2CCc3ccccc3CC2)nc(-c2ccccn2)n1 [Example 1, GSK-J1, reference compound]	–	8.04	22.4	≥ 100	–
